Values after ≈ are worked out from the molar mass of the structure shown.
Tested on: Staphylococcus aureus
Assay: Antibacterial activity against Staphylococcus aureus ATCC 6538P after 18 hrs by broth microdilution method
Assay type: functional

An MIC of 32 µg/mL (≈ 48.7 µM) was found for CO[C@@H]1[C@H](O)[C@@H](C)O[C@@H](OC[C@H]2[C@@H]3O[C@@H]3/C=C/C(=O)[C@H](C)CC[C@H](O[C@@H]3O[C@H](C)C[C@H](O)[C@H]3O)[C@@H](C)/C=C/C(=O)O[C@@H]2C)[C@@H]1OC [NEUTRAMYCIN E] in this work.

From ChEMBL document CHEMBL1146587, “Purification, structure determination, and antimicrobial activity of neutramycins B-G” (2003)
